In test [1] the test system is GPDH activity in human adipocytes. The experiment in a line: GPDH activity in human adipocytes. The class given is cell-based. How it is done:
FIG. 3. The lipogenic effect of glibenclamide in human adipocytes. As an indicator of lipogenic stimulation, both FAS and GPDH activity were measured. A. Glibenclamide stimulation of FAS activity. Human adipocytes were treated with 10 μM glibenclamide alone, 10 μM glibenclamide plus 10 μM diazoxide or 10 μM glibenclamide plus 30 μM nitrendipine for 48 hr. FAS was measured as described (6, 14). *p<0.001 vs. Control. B. Glibenclamide stimulation of GPDH activity. Human adipocytes were treated with 10 μM glibenclamide or 10 μM glibenclamide plus 10 μM diazoxide for 48 hr. GPDH activity was measured as described (14). *p<0.01 vs. Control.
To study the role of adipocyte SUR1 in regulating lipogenesis, we treated human adipocyte with SUR1 agonist and antagonist using FAS and GPDH activities as lipogenic markers. Human adipocytes were incubated in 24-well plates with the treatments indicated for 48 hr. FAS and GPDH activities were determined spectrophotometrically in crude cytosolic extracts of human adipocytes by measuring the oxidation rate of NADPH or NADH respectively, as previously described (14). The protein correction was measured by a modified Bradford method using Coomassie Blue dye (Pierce, Rockford, Ill.).

The test system of test [2] is human adipocytes. Kind of test: Lipolysis (glycerol release into the culture medium) in human adipocytes. The class given is cell-based. How it is done:
FIG. 4. The anti-lipolytic effect of glibenclamide in human adipocytes. Activation of lipolysis in adipocytes is typically measured by release of glycerol into the media. Human adipocytes were treated with 10 μM glibenclamide alone, 10 μM glibenclamide plus 10 μM diazoxide or 10 μM glibenclamide plus 30 μM nitrendipine for 48 hr. Glycerol release was determined as described (19). *p<0.01 vs. Control.
Human adipocytes were examined for changes in lipolysis regulation by measurement of glycerol release into the media. Glycerol was measured by using a standard method (19), although other techniques for measuring glycerol would be equally useful.
Human subcutaneous abdominal adipose tissue was obtained from patients undergoing elective abdominal cosmetic surgery, although other types of adipose tissue, such as mesenteric, retroperitoneal, perirenal, or omental may be useful in identifying these compounds. Preadipocytes are isolated by collagenase treatment of the tissue and cultured adipocytes prepared as described (patent filed; Jan. 29, 1999; Ser. No. 09/240,029). Agents that regulate calcium flux in adipocytes as noted above can mediate lipolysis. Human adipocytes may be cultured in multi-well plates with different treatments between 1 hour or 24 hours as indicated, and glycerol release into the culture medium was determined as an indicator for lipolysis using a one-step enzymatic fluorometric method. The media collected from 1 hr treatments were used directly for glycerol measurements. For 24 hr treatments, media were removed, and cells were washed with Hank's Balanced Salt Solution and incubated in fresh medium for a further 10-60 min. This media were then used for glycerol measurements for 24 hr treatments.
We next investigated the role of adipocyte SUR1 on lipolysis. Lipolysis was measured as follows. Human adipocytes were treated as described below and glycerol release into the culture medium was determined as an indicator for lipolysis using a one step enzymatic fluorometric method (19). After treatment medium was obtained, HClO4 was added for deproteinization.
Agents that regulate calcium flux in adipocytes as noted above can mediate lipolysis. Human adipocytes (1 mL cells/well) were incubated in 24-well plates with different treatments for either 1 hour or 24 hours as indicated, and glycerol release into the culture medium was determined as an indicator for lipolysis using a one-step enzymatic fluorometric method. The media collected from 1 hr treatments were used directly for glycerol measurements. For 24 hr treatments, media were removed, and cells were washed with Hank's Balanced Salt Solution and incubated in fresh medium for a further 30 min. This media were then used for glycerol measurements for 24 hr treatments. After medium was collected, HClO4 was added to give a final concentration of 3% for deproteinization. The sample was centrifuged at 9000×g for 20 min. The supernatant was then collected and neutralized with 10N NaOH. Samples were stored at −80° C. prior to glycerol assay. Cells were collected, homogenized and stored at −80° C. for subsequent total protein correction by a modified Bradford method using Coomassie Blue dye (PIERCE, Rockford, Ill.).

Setting [3] is: SUR agonists such as glibenclamide, general description.

Structures are written as SMILES.

What is called inhibition is the drop in the measured response relative to a control, in per cent. High values mean a strong effect, low ones a weak effect. As for `COc1ccc(Cl)cc1C(=O)NCCc1ccc(S(=O)(=O)NC(=O)NC2CCCCC2)cc1` [glibenclamide], the “increase in GPDH activity” value in test [1] (10 μM glibenclamide, 48 hr) turned out to be 48%. In test [1] (10 μM glibenclamide, 48 hr, control 554.0±33.0), this compound showed a GPDH activity of 821.0±73.4 NADH nM/min/mg protein. Also, in test [1] (setting [3]), the “increased GPDH activity” value is 50-100%. In addition, the “lipolysis (glycerol release)” value in test [2] (10 μM glibenclamide, 48 hr, control 0.193±0.050) worked out at 0.061±0.009 NADH μM/mg protein. This compound returned an inhibition at 10 µM in test [2] (Homo sapiens, Adipocyte, 10 μM glibenclamide, 48 hr) of 68%. The inhibition in lipolysis in test [2] (setting [3]) was 25-70%.
